Measurements from paper PMC10401666 (RSC Advances, 2023).
Read-outs that look alike come from different tables or passages of the source.

Tests used:
MCF-7 = test: MTT anti-proliferative assay, MCF-7; type: cell-based; settings: Homo sapiens, MCF7, read-out: IC50 MCF-7
HepG2 = test: MTT anti-proliferative assay, HepG2; type: cell-based, human; settings: mean of three experiments
VEGFR-2 = VEGFR-2 (Homo sapiens, UniProt P35968); test: biochemical
IL6 = IL6 level in MCF-7 cells; type: cell-based, human
Bcl-2 = Bcl-2 level in MCF-7 cells; type: cell-based, human; settings: MCF-7, 10.17 μM
caspase-9 = test: Caspase-9 level in MCF-7 cells; type: cell-based, human; settings: MCF-7, 10.17 μM
MCF-7 cells [1] = test: Apoptosis assay, annexin V / PI flow cytometry; type: cell-based, human; settings: MCF-7, 10.17 μM, 72 h
BAX = BAX level in MCF-7 cells; type: cell-based, human; settings: MCF-7, 10.17 μM
MCF-7 cells [2] = test: Cell cycle analysis by flow cytometry; type: cell-based, human; settings: MCF-7, 10.17 μM, 72 h
caspase-8 = test: Caspase-8 level in MCF-7 cells; type: cell-based, human; settings: MCF-7, 10.17 μM
TNF-α = TNF-α level in MCF-7 cells; type: cell-based, human
[3] = Homo sapiens, HepG2, read-out: IC50 HepG2, MTT assay

Sequence of VEGFR-2 (P35968 20-1356): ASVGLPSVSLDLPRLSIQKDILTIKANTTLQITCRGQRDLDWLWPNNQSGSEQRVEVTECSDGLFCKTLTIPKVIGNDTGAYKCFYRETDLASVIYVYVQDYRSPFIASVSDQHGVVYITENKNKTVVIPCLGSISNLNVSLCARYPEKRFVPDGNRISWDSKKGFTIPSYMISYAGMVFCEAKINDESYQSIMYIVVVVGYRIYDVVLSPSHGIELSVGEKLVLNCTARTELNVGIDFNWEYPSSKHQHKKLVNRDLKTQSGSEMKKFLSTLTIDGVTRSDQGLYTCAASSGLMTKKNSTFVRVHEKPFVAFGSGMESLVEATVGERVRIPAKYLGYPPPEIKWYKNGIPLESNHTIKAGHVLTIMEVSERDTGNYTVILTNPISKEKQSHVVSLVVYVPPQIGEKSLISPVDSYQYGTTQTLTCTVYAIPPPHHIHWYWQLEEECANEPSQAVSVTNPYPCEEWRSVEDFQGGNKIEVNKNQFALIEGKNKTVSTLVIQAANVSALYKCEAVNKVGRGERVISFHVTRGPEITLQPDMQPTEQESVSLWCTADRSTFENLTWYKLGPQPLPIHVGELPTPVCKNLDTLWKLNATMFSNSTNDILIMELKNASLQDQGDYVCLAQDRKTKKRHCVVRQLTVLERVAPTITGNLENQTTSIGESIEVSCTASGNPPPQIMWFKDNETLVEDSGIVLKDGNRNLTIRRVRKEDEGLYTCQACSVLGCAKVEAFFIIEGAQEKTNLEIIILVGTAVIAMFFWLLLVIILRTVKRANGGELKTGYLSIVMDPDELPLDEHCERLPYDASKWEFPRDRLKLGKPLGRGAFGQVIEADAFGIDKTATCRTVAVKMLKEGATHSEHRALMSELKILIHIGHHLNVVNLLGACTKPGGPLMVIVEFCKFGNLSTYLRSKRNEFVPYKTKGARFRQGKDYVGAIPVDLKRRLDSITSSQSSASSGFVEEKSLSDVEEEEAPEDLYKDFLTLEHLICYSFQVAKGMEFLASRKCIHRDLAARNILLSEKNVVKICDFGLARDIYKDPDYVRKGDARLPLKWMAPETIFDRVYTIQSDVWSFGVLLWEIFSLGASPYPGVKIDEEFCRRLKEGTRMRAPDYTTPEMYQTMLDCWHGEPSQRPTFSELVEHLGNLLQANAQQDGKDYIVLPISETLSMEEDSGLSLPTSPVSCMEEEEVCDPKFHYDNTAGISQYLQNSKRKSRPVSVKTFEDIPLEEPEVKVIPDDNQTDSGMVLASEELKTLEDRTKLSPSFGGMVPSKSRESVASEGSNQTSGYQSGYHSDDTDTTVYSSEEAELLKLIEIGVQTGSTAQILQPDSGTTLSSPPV

In the case of `O=C(CSc1nnc(Cn2cnc3sc4c(c3c2=O)CCCC4)o1)Nc1ccc(Cl)cn1` [Compound 20, N-(5-Chloropyridin-2-yl)-2-((5-((4-oxo-5,6,7,8-tetrahydrobenzo[4,5]thieno[2,3-d]pyrimidin-3(4H)-yl)methyl)-1,3,4-oxadiazol-2-yl)thio)acetamide], the IC50 (MCF-7) is reported as 5.38 ± 0.45 µM and the IC50 (HepG2; [3]) is reported as 4.84 ± 0.38 µM.
Work on `O=C(CSc1nnc(Cn2cnc3sc4c(c3c2=O)CCCC4)o1)Nc1nccs1` [Compound 21, 2-((5-((4-Oxo-5,6,7,8-tetrahydrobenzo[4,5]thieno[2,3-d]pyrimidin-3(4H)-yl)methyl)-1,3,4-oxadiazol-2-yl)thio)-N-(thiazol-2-yl)acetamide] yielded an IC50 (MCF-7) of 6.31 ± 0.16 µM, an IC50 (HepG2; [3]) of 11.8 ± 1.05 µM and an IC50 (VEGFR-2) of 0.42 ± 0.008 µM.
Work on `CNC(=O)c1cc(Oc2ccc(NC(=O)Nc3ccc(Cl)c(C(F)(F)F)c3)cc2)ccn1` [Sorafenib, reference compound] yielded an IC50 (MCF-7) of 9.98 ± 0.6 µM and an IC50 (HepG2; [3]) of 13.3 ± 0.3 µM.
In the case of `O=C(CSc1nnc(Cn2cnc3sc4c(c3c2=O)CCCC4)o1)Nc1c([N+](=O)[O-])cccc1[N+](=O)[O-]` [Compound 19, N-(2,6-Dinitrophenyl)-2-((5-((4-oxo-5,6,7,8-tetrahydrobenzo[4,5]thieno[2,3-d]pyrimidin-3(4H)-yl)methyl)-1,3,4-oxadiazol-2-yl)thio)acetamide], the IC50 (MCF-7) is reported as 16.5 ± 1.16 µM, the IC50 (HepG2; [3]) is reported as 31.8 ± 1.15 µM and the IC50 (VEGFR-2) is reported as 0.29 ± 0.007 µM.
For `O=C(CSc1nnc(Cn2cnc3sc4c(c3c2=O)CCCC4)o1)N1CCCCC1` [Compound 18, 3-((5-((2-Oxo-2-(piperidin-1-yl)ethyl)thio)-1,3,4-oxadiazol-2-yl)methyl)-5,6,7,8-tetrahydrobenzo[4,5]thieno[2,3-d]pyrimidin-4(3H)-one], the “IL6 level lower than control” value (IL6) was 2.5 times, the IL6 level (IL6; control = 1) was 0.393 and the IC50 (MCF-7) was 10.2 ± 1.01 µM. The “Bcl-2 level decrease vs control” value (Bcl-2) was 3.1 fold, the “Protein expression Bcl-2” value (Bcl-2; control = 1) was 0.315 and the “Caspase-9 level increase vs control” value (caspase-9) was 5.4 fold. For the same compound, the “Protein expression Caspase-9” value (caspase-9; control = 1) was 5.422, the “Apoptosis induced (early + late)” value (MCF-7 cells [1]) was 23.35% and the Early apoptosis (MCF-7 cells [1]) was 15.96%. The Late apoptosis (MCF-7 cells [1]) was 7.39%, the Necrosis (MCF-7 cells [1]) was 2.41 and the “Total (cell death)” value (MCF-7 cells [1]) was 25.76. For the same compound, the “BAX level increase vs control” value (BAX) was 3.6 fold, the “Protein expression BAX” value (BAX; control = 1) was 3.669 and the IC50 (HepG2; [3]) was 24.5 µM. For the same compound, the IC50 (HepG2; read-out: IC50 HepG2, MTT assay) was 24.3 ± 2.08 µM, the “Cell cycle distribution (%) % G2/M” value (MCF-7 cells [2]) was 15.4% and the “Cell cycle distribution (%) %G0–G1” value (MCF-7 cells [2]) was 56.46%. For the same compound, the “Cell cycle distribution (%) %S” value (MCF-7 cells [2]) was 28.14%, the “Caspase-8 level increase vs control” value (caspase-8) was 2.6 fold and the “Protein expression Caspase-8” value (caspase-8; control = 1) was 2.607. For the same compound, the “TNF-α level lower than control” value (TNF-α) was 2.9 times and the TNF-α level (TNF-α; control = 1) was 0.335.
In the case of `O=C(CSc1nnc(Cn2cnc3sc4c(c3c2=O)CCCC4)o1)Nc1nc2ccccc2s1` [Compound 22, N-(Benzo[d]thiazol-2-yl)-2-((5-((4-oxo-5,6,7,8-tetrahydrobenzo[4,5]thieno[2,3-d]pyrimidin-3(4H)-yl)methyl)-1,3,4-oxadiazol-2-yl)thio)acetamide], the IC50 (MCF-7) is reported as 5.73 ± 0.18 µM and the IC50 (HepG2; [3]) is reported as 5.51 ± 0.25 µM.
